Assay results published in patent US8759564B2, “Amidoacetonitrile compounds having pesticidal activity” (Novartis AG, priority 2009, dated 2014).

Assays:
[1] = tested on: Trichostrongylus colubriformis; assay: In-vivo test in Mongolian gerbils using peroral application; settings: dose 0.32 mg/kg, T. colubriformis
Experimental: (§1) 2. In-vivo Test on Trichostrongylus colubriformis and Haemonchus contortus in Mongolian Gerbils (Meriones unquiculatus) Using Peroral Application Six to eight week old Mongolian gerbils are infected through a stomach tube with ca. 2000 third instar larvae each of T. colubriformis and H contortus. 6 days after infection, the gerbils are treated by peroral application with the test compounds, dissolved in a mixture of 2 pasts DMSO and 1 part polyethylene glycol (PEG 400). On day 9 (3 days after treatment), when most of the H. cantortus that are still present are late 4th instar larvae and most of the T. colubriformis are immature adults, the gerbils are killed in order to count the worms. The efficacy is calculated as the % reduction of the number of worms in each gerbil, compared with the geometric average of number of worms from 6 infected and untreated gerbils.

[2] = tested on: Haemonchus contortus; assay: as above; settings: dose 0.32 mg/kg, H. contortus
Experimental: as §1

[3] = tested on: Teladorsagia circumcincta; assay: In-vivo test in sheep using peroral application; settings: oral, worm burden in abomasum 19 to 21 days after treatment
Experimental: 3. In-Vivo Test on Teladorsagia circumcincta in Sheep Using Peroral Application Sheep are infected with 6,000 to 8,000 third stage larvae of Teladorsagia circumcincta (Tca) 7 to 5 days prior to treatment Animals in the treated groups are treated orally at a dose of 2 or 5 mg per kg bodyweight. […] The animals are euthanized 19 to 21 days after treatment and the worm burden in the abomasum is examined. Efficacy assessment of the compounds is determined by comparison of the treated and untreated groups worm counts, calculated using Abbott's formula as follows: % efficacy=100×(C−T)/C, where C is the geometric mean worm count of each species for the untreated control group and T, the geometric mean worm count of each species for the treated group.

[4] = tested on: Ostertagia ostertagi; assay: In-vivo test in cattle using peroral application; settings: oral, worm burden in abomasum 23 to 28 days after treatment
Experimental: 4. In-vivo Test on Ostertagia ostertagi in Cattle Using Peroral Application Cattle are infected with 7,000 to 10,000 third stage larvae of Ostertagia ostertagi (Oo) 7 to 5 days prior to treatment. […] The animals are euthanized 23 to 28 days after treatment and the worm burden in the abomasum is examined. Efficacy assessment of the compounds is determined by comparison of the treated and untreated groups worm counts, calculated using Abbott's formula as follows: % efficacy=100×(C−T)/C; where C is the geometric mean worm count of each species for the untreated control group and T, the geometric mean worm count of each species for the treated group.

Row | SMILES | melting point [°C] | efficacy (% reduction of the number of worms) [1] [%] | efficacy (% reduction of the number of worms) [2] [%] | Efficacy against Tca [%] ([3]; dose 2 mg/kg) | Efficacy against Oo [%] ([4]; dose 5 mg/kg) | Efficacy against Tca [%] ([3]; dose 5 mg/kg) | Efficacy against Oo [%] ([4]; dose 20 mg/kg)
1 | CC(C#N)(COc1cc(C#N)ccc1Oc1ccc(OC(F)(F)F)cc1Cl)NC(=O)c1ccc(S(=O)(=O)C(F)(F)F)cc1 (racemic) [Compound No. 1.12, N-[1-cyano-1-methyl-2-(5-cyano-2-{2-chloro-4-trifluoromethoxy-phenoxy}-phenoxy)-ethyl]-4-trifluoromethylsulfonylbenzamide] | 128 to 130 | 98 | 98 | 99 | 100 |  | 
2 | C[C@@](C#N)(COc1cc(C#N)ccc1Oc1ccc(OC(F)(F)F)cc1Cl)NC(=O)c1ccc(OC(F)(F)F)cc1 [Compound No. 1.3, N-[(1R)-1-cyano-2-(5-cyano-2-{2-chloro-4-trifluoromethoxyphenoxy}-phenoxy)-1-methylethyl]-4-trifluoromehoxy-benzamide] |  | 100 | 100 |  |  |  | 
3 | CC(C#N)(COc1cc(C#N)ccc1Oc1ccc(Cl)cc1Cl)NC(=O)c1ccc(OC(F)(F)F)cc1 (stereo not shown) [reference compound] |  |  |  |  |  | 0 | 55
4 | CC(C#N)(COc1cc(Cl)ccc1Oc1ccc(Cl)cc1Cl)NC(=O)c1ccc(OC(F)(F)F)cc1 (stereo not shown) [reference compound] |  |  |  |  |  | 15 | 
5 | CC(C#N)(COc1cc(C#N)ccc1Oc1ccc(OC(F)(F)F)cc1Cl)NC(=O)c1ccc(SC(F)(F)F)cc1 (racemic) [Compound No. 1.7, N-[1-cyano-1-methyl-2-(5-cyano-2-{2-chloro-4-trifluoromethoxy-phenoxy}-phenoxy)-ethyl]-4-trifluoromethylsulfanylbenzamide] | 136 to 137 | 100 | 100 | 99 | 100 |  | 
6 | CC(C#N)(COc1cc(C#N)ccc1Oc1ccc(OC(F)(F)F)cc1Cl)NC(=O)c1ccc(OC(F)(F)F)cc1 (racemic) [Compound No. 1.1, N-[1-cyano-1-methyl-2-(5-cyano-2-{2-chloro-4-trifluoromethoxy-phenoxy}-phenoxy)-ethyl]-4-trifluoromethoxybenzamide] |  | 100 | 100 | 99 | 100 |  | 
